Measured values: ChEMBL document CHEMBL1129719, “The synthesis of a radioligand with high potency and selectivity for CCKB/ gastrin receptors” (Bioorg Med Chem Lett, 1996)

Columns and labels:
Rattus norvegicus [1] = species: Rattus norvegicus; experiment: pKD value in rat cerebral cortical membranes; format: functional
Rattus norvegicus [2] = species: Rattus norvegicus; experiment: Bmax value was determined in rat cerebral cortical membranes
[3] = target: T1, Gastrin/cholecystokinin type B receptor (Rattus norvegicus, UniProt P30553); experiment: Compound was tested for binding affinity against Cholecystokinin type B receptor in rat cortical membranes using L-365260 as the radioligand.; format: cell membranes
T1 sequence (P30553 whole entry): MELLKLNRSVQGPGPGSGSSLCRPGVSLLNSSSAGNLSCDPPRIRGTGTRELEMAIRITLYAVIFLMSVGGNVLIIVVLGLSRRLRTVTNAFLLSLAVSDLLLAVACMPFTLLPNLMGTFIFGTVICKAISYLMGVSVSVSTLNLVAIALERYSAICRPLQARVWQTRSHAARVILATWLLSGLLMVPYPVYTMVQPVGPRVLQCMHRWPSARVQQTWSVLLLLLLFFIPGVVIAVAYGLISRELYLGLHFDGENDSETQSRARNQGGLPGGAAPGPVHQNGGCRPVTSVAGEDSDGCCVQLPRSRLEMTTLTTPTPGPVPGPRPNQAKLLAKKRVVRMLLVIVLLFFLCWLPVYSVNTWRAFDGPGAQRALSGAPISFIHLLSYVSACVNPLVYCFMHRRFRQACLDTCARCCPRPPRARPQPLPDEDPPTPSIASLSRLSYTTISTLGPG

Q: `O=C(O)c1cc(NC(=O)[C@H](Cc2ccccc2)NC(=O)c2cc3cc[nH]c3cc2C(=O)NCC23CC4CC(CC(C4)C2)C3)cc(C(=O)O)c1` was tested. Which pKD (Rattus norvegicus [1]) did it give?
A: Its pKD is 9.48.

Q: And the Bmax (Rattus norvegicus [2])?
A: Its Bmax is 3.61 pM/g.

Q: And the Ki [3]?
A: Its Ki is 23.4 nM.
